Measurements reported in patent US5817818A, “Androstenones” (Glaxo Wellcome Inc., priority 1996, dated 1998).
pIC50, pKi: −log10 of the molar value. Like-named read-outs stand apart in the source and are kept apart here.

Key:
Assay type in all cases: biochemical
Human Adrenal 3BHSD = molecular target: T1, Human Adrenal 3BHSD (Homo sapiens, UniProt P26439); test: Inhibition of human adrenal 3β-hydroxy-Δ^5-steroid dehydrogenase/3-keto-Δ^5-steroid isomerase (3BHSD) (microsomes; DHEA to androstenedione conversion); conditions: 1 mM NAD+, pH 7.5, 1 to 60 minutes
T1 construct: microsomes derived from human adrenal tissues; from tissue; host or cells: human adrenal tissue, microsomes
T1 sequence (P26439 1-372): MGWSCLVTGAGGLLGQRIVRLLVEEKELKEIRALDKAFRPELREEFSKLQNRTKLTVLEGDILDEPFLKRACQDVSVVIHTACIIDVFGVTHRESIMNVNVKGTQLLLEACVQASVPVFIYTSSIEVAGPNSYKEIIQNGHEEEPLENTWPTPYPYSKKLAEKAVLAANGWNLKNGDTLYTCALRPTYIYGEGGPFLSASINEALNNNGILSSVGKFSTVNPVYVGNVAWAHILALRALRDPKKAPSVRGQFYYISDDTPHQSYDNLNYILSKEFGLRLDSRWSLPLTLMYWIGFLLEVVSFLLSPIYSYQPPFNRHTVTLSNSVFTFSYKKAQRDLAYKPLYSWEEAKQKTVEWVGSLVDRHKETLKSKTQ
Procedure: Enzyme activities are measured using microsomes derived from human adrenal tissues. Microsomes were prepared by homogenization of the tissue followed by differential centrifugation of the homogenate. Microsome extracts were incubated with varying concentrations of dehydroepiandrosterone (DHEA), 1 mM NAD+, and varying amounts of the compounds of Formula (I), i.e. a test compound, in pH 7.5 buffer for a period of time within the range of 1 to 60 minutes. Corresponding incubations were carried out with no test compound as a control study. The percentage of conversion of DHEA to androstenedione in the presence of test compounds compared to the corresponding conversion in the control study was estimated using HPLC with radiochemical detection.

[1] = molecular target: T2, human type 1 5α-reductase (Homo sapiens, UniProt P18405); test: Inhibition of human type 1 steroid 5α-reductase (microsomes; testosterone to DHT conversion)
T2 construct: made in house; host or cells: Sf9 insect cells, recombinant baculovirus; microsomes
T2 sequence (P18405 1-259): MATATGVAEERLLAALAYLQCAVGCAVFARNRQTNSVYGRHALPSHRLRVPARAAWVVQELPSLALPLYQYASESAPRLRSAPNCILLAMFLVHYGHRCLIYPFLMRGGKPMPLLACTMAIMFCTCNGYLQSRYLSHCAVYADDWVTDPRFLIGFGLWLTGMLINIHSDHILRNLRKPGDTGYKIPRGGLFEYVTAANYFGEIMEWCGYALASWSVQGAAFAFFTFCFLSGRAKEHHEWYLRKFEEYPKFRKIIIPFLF
Procedure: (§1) Enzyme activities may be determined using microsomes derived from: 1) prostate tissue from benign prostatic hyperplasia (BPH) patients; 2) recombinant baculovirus infected SF9 cells that express human type 1 5α-reductase; or 3) recombinant baculovirus infected SF9 cells that express human type 2 5α-reductase. Microsomes were prepared by homogenization of the tissue or cells, followed by differential centrifugation of the homogenate. Microsome extracts were incubated with varying concentrations of [1,2,6,7-^3 H]-testosterone, 1 mM NADPH, and varying amounts of the compounds of formula (I,) i.e. a test compound, in buffer containing a NADPH regenerating system capable of maintaining NADPH concentrations for a period of time within the range 0.5-240 minutes. Corresponding incubations were carried out with no test compound as a control study.
(§2) For type 1 IC50 measurements, assay components except testosterone were preincubated for 10 minutes at pH 7.0, and following the addition of 100 nM testosterone the assays were allowed to proceed for 10-120 minutes. For type 2 IC50 measurements, assay components except testosterone were preincubated for 20 minutes at pH 6.0, and following the addition of 8 nM testosterone the assays were allowed to proceed for 20-40 minutes. The percentage of conversion of testosterone to DHT in the presence of test compounds compared to the corresponding conversion in the control study was estimated using high performance liquid chromatography (HPLC) with radiochemical detection.

[2] = molecular target: T3, human type 2 5α-reductase (Homo sapiens, UniProt P31213); test: Inhibition of human type 2 steroid 5α-reductase (microsomes; testosterone to DHT conversion); conditions: 20 min preincubation, pH 6.0, 8 nM testosterone, 20-40 min, 1 mM NADPH; read-out: IC50 Human Type 2 5AR
T3 construct: made in house; host or cells: Sf9 insect cells, recombinant baculovirus; microsomes
T3 sequence (P31213 1-254): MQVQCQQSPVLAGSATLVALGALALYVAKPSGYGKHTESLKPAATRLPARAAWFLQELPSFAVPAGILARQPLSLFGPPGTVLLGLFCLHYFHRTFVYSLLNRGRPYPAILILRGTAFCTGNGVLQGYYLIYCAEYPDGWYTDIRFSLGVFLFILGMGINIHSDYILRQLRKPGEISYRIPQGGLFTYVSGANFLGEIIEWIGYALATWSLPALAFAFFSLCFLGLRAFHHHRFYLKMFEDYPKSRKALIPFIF
Procedure: as §1, §2

[3] = 10 min preincubation, pH 7.0, 100 nM testosterone, 10-120 min, 1 mM NADPH, read-out: IC50 Human Type 1 5AR

SMILES | pKi (Human Adrenal 3BHSD) | pIC50 [1, 3] | pIC50 [2] | pIC50 [1]
C[C@]12CCC(=O)N[C@@H]1CC[C@@H]1[C@@H]2CC[C@]2(C)[C@@H](C(=O)NC3(c4ccc(Cl)cc4)CCCC3)CC[C@@H]12 [Compound 1, 17β-N-1-(4-Chlorophenyl)cyclopentylcarbamoyl-4-aza-5α-androstan-3-one] | < 6.00 | 8.00 to 9.00 | > 9.00 | 
CN1C(=O)CC[C@]2(C)[C@H]3CC[C@]4(C)[C@@H](C(=O)NC5(c6ccc(Cl)cc6)CCCC5)CC[C@H]4[C@@H]3CC[C@@H]12 [Compound 2, 17β-N-1-(4-Chlorophenyl)cyclopentylcarbamoyl-4-methyl-4-aza-5α-androstan-3-one] | 5.00 to 8.00 | > 9.00 | > 9.00 | 
C[C@]12C=CC(=O)N[C@@H]1CC[C@@H]1[C@@H]2CC[C@]2(C)[C@@H](C(=O)NC3(c4ccc(Cl)cc4)CCCC3)CC[C@@H]12 [Compound 3, 17β-N-1-(4-chlorophenyl)cyclopentylcarbamoyl-4-aza-5α-androst-1-en-3-one] | < 6.00 |  | > 9.00 | > 9.00
CC(C)(C)c1ccc(C2(NC(=O)[C@H]3CC[C@H]4[C@@H]5CC[C@H]6NC(=O)C=C[C@]6(C)[C@H]5CC[C@]34C)CCCC2)cc1 [Compound 4, 17β-N-1-(4-t-Butylphenyl)cyclopentylcarbamoyl-4-aza-5α-androst-1-en-3-one] | < 6.00 | 8.00 to 9.00 | > 9.00 | 
CC(C)(C)c1ccc(C2(NC(=O)[C@H]3CC[C@H]4[C@@H]5CC[C@H]6NC(=O)C=C[C@]6(C)[C@H]5CC[C@]34C)CCCCC2)cc1 [Compound 5, 17β-N-1-(4-t-Butylphenyl)cyclohexylcarbamoyl-4-aza-5α-androst-1-en-3-one] | < 6.00 | 8.00 to 9.00 | > 9.00 | 
C[C@]12C=CC(=O)N[C@@H]1CC[C@@H]1[C@@H]2CC[C@]2(C)[C@@H](C(=O)NC3(c4ccc(Cl)cc4)CCCCC3)CC[C@@H]12 [Compound 6, 17β-N-1-(4-Chlorophenyl)cyclohexylcarbamoyl-4-aza-5α-androst-1-en-3-one] | < 6.00 | 8.00 to 9.00 | > 9.00 | 
C[C@]12C=CC(=O)N[C@@H]1CC[C@@H]1[C@@H]2CC[C@]2(C)[C@@H](C(=O)NC3(c4ccc(C(F)(F)F)cc4)CCCC3)CC[C@@H]12 [Compound 7, 17β-N-1-(4-Trifluoromethylphenyl)cyclopentylcarbamoyl-4-aza-5α-androst-1-en-3-one] | < 6.00 | 8.00 to 9.00 | > 9.00 | 
COc1ccc(C2(NC(=O)[C@H]3CC[C@H]4[C@@H]5CC[C@H]6NC(=O)C=C[C@]6(C)[C@H]5CC[C@]34C)CCCC2)cc1 [Compound 8, 17β-N-1-(4-Methoxyphenyl)cyclopentylcarbamoyl-4-aza-5α-androst-1-en-3-one] | < 6.00 | 8.00 to 9.00 | > 9.00 | 
C[C@]12C=CC(=O)N[C@@H]1CC[C@@H]1[C@@H]2CC[C@]2(C)[C@@H](C(=O)NC3(c4ccc(F)cc4)CCCC3)CC[C@@H]12 [Compound 9, 17β-N-1-(4-Fluorophenyl)cyclopentylcarbamoyl-4-aza-5α-androst-1-en-3-one] | < 6.00 | 8.00 to 9.00 | > 9.00 | 
C[C@]12C=CC(=O)N[C@@H]1CC[C@@H]1[C@@H]2CC[C@]2(C)[C@@H](C(=O)NC3(c4ccc(F)cc4)CCCCC3)CC[C@@H]12 [Compound 10, 17β-N-1-(4-Fluorophenyl)cyclohexylcarbamoyl-4-aza-5α-androst-1-en-3-one] | < 6.00 | 8.00 to 9.00 | > 9.00 | 
COc1ccc(C2(NC(=O)[C@H]3CC[C@H]4[C@@H]5CC[C@H]6NC(=O)C=C[C@]6(C)[C@H]5CC[C@]34C)CCCCC2)cc1 [Compound 11, 17β-N-1-(4-Methoxyphenyl)cyclohexylcarbamoyl-4-aza-5α-androst-1-en-3-one] | < 6.00 | 8.00 to 9.00 | > 9.00 | 
C[C@]12C=CC(=O)N[C@@H]1CC[C@@H]1[C@@H]2CC[C@]2(C)[C@@H](C(=O)NC3(c4ccc5c(c4)OCO5)CCCCC3)CC[C@@H]12 [Compound 12, 17β-N-1-(3,4-Methylenedioxyphenyl)cyclohexylcarbamoyl-4-aza-5α-androst-1-en-3-one] | 5.00 to 8.00 | 5.00 to 8.00 | > 9.00 | 
CC(C)(C)c1ccc(C2(NC(=O)[C@H]3CC[C@H]4[C@@H]5CC[C@H]6NC(=O)C=C[C@]6(C)[C@H]5CC[C@]34C)CCCCCC2)cc1 [Compound 13, 17β-N-1-(4-t-Butylphenyl)cycloheptylcarbamoyl-4-aza-5α-androst-1-en-3-one] | < 6.00 | 8.00 to 9.00 | > 9.00 | 
CC(C)(C)c1ccc(C2(NC(=O)[C@H]3CC[C@H]4[C@@H]5CC[C@H]6NC(=O)C=C[C@]6(C)[C@H]5CC[C@]34C)CCOCC2)cc1 [Compound 14, 17β-N-4-(4-t-Butylphenyl)tetrahydropyranylcarbamoyl-4-aza-5α-androst-1-en-3-one] | < 6.00 | 8.00 to 9.00 | > 9.00 | 
C[C@]12C=CC(=O)N[C@@H]1CC[C@@H]1[C@@H]2CC[C@]2(C)[C@@H](C(=O)NC3(c4ccc(Cl)cc4Cl)CC3)CC[C@@H]12 [Compound 15, 17β-N-1-(2,4-Dichlorophenyl)cyclopropylcarbamoyl-4-aza-5α-androst-1-en-3-one] | < 6.00 | 8.00 to 9.00 | > 9.00 | 
CCC1(CC)CC1(NC(=O)[C@H]1CC[C@H]2[C@@H]3CC[C@H]4NC(=O)C=C[C@]4(C)[C@H]3CC[C@]12C)c1ccc(C(F)(F)F)cc1 (stereo partly drawn) [Compound 16, 17β-N-1-(4-Trifluoromethylphenyl)-2,2-diethylcyclopropylcarbamoyl-4-aza-5α-androst-1-en-3-one] | < 6.00 | 8.00 to 9.00 | > 9.00 | 
CC1(C)CCC(NC(=O)[C@H]2CC[C@H]3[C@@H]4CC[C@H]5NC(=O)C=C[C@]5(C)[C@H]4CC[C@]23C)(c2ccc(C(C)(C)C)cc2)CC1 [Compound 17, 17β-N-1-(4-t-Butylphenyl)-4,4-dimethylcyclohexylcarbamoyl-4-aza-5α-androst-1-en-3-one] | < 6.00 | > 9.00 | > 9.00 | 
CC(C)(C)c1ccc(C2(NC(=O)[C@H]3CC[C@H]4[C@@H]5CC[C@H]6NC(=O)C=C[C@]6(C)[C@H]5CC[C@]34C)CCC(C(C)(C)C)CC2)cc1 (stereo partly drawn) [Compound 18, 17β-N-1-(4-t-Butylphenyl)-4-t-Butylcyclohexylcarbamoyl-4-aza-5α-androst-1-en-3-one] | < 6.00 | 8.00 to 9.00 | > 9.00 | 
C[C@]12C=CC(=O)N[C@@H]1CC[C@@H]1[C@@H]2CC[C@]2(C)[C@@H](C(=O)NC3(c4cccc(C(F)(F)F)c4)CCCC3)CC[C@@H]12 [Compound 19, 17β-N-1-(3-Trifluoromethylphenyl)cyclopentylcarbamoyl-4-aza-5α-androst-1-en-3-one] | < 6.00 | 8.00 to 9.00 | > 9.00 | 
CC(C)(C)c1ccc(C2(NC(=O)[C@H]3CC[C@H]4[C@@H]5CC[C@H]6NC(=O)C=C[C@]6(C)[C@H]5CC[C@]34C)CCSCC2)cc1 [Compound 20, 17β-N-4-(4-t-Butylphenyl)tetrahydrothiopyranylcarbamoyl-4-aza-5α-androst-1-en-3-one] | < 6.00 | > 9.00 | > 9.00 | 
